Data reported in patent US7307044B2, “3-biphenyl-substituted-3-substituted-4-ketolactam and ketolactone and their utilization as pesticide” (Bayer CropScience AG, priority 2001, dated 2007).

Columns and labels:
[1] = test system: larvae of the mustard beetle (Phaedon cochleariae); assay: Phaedon larvae test; format: in vivo; details: cabbage leaves dipped
Procedure: (§1) Phaedon Larvae Test Solvent: 7 parts by weight of dimethylformamide Emulsifier: 2 parts by weight of alkylaryl polyglycol ether To produce a suitable preparation of active compound, 1 part by weight of active compound is mixed with the stated amounts of solvent and emulsifier, and the concentrate is diluted with emulsifier-containing water to the desired concentration. Cabbage leaves (Brassica oleracea) are treated by being dipped into the preparation of active compound of the desired concentration and are populated with larvae of the mustard beetle (Phaedon cochleariae) while the leaves are still moist. After the desired period of time, the kill in % is determined. 100% means that all beetle larvae have been killed; 0% means that none of the beetle larvae have been killed.

[2] = test system: green peach aphid (Myzus persicae); assay: Myzus test; format: in vivo; details: 500 ppm, cabbage leaves dipped
Procedure: as §1, with “Myzus” for “Phaedon Larvae”, “oleracea) which are heavily infested by the green peach aphid (Myzus persicae)” for “oleracea)”, “concentration.” for “concentration and are populated with larvae of the mustard beetle (Phaedon cochleariae) while the leaves are still moist.”, “aphids” for “beetle larvae”

[3] = test system: caterpillars of the armyworm (Spodoptera frugiperda); assay: Spodoptera frugiperda test; format: in vivo; details: cabbage leaves dipped
Procedure: as §1, with “Spodoptera frugiperda” for “Phaedon Larvae”, “caterpillars” for “larvae”, “armyworm (Spodoptera frugiperda)” for “mustard beetle (Phaedon cochleariae)”, “caterpillars” for “beetle larvae”

Amaranthus = assay: Post-emergence test (greenhouse); format: in vivo; details: 250 g ai/ha, after three weeks
Procedure: (§2) Solvent: 5 parts by weight of acetone
(§3) Emulsifier: 1 part by weight of alkylaryl polyglycol ether
(§4) To produce a suitable preparation of active compound, 1 part by weight of active compound is mixed with the stated amount of solvent, the stated amount of emulsifier is added and the concentrate is diluted with water to the desired concentration.
(§5) Test plants of a height of 5-15 cm are sprayed with the preparation of active compound such that the particular amounts of active compound desired are applied per unit area. The concentration of the spray liquor is chosen such that the particular amounts of active compound desired are applied in 1000 l of water/ha.
(§6) After three weeks, the degree of damage to the plants is rated in % damage in comparison to the development of the untreated control.
(§7) The figures denote: • 0%=no effect (like untreated control) • 100%=total destruction

Echinochloa = assay: Post-emergence test (greenhouse); format: in vivo; details: 250 g ai/ha, after three weeks
Procedure: as §2, §3, §4, §5, §6, §7

Avena fatua = assay: Post-emergence test (greenhouse); format: in vivo; details: 250 g ai/ha, after three weeks
Procedure: as §2, §3, §4, §5, §6, §7

Setaria = assay: Post-emergence test (greenhouse); format: in vivo; details: 250 g ai/ha, after three weeks
Procedure: as §2, §3, §4, §5, §6, §7

Alopecurus = assay: Post-emergence test (greenhouse); format: in vivo; details: 250 g ai/ha, after three weeks
Procedure: as §2, §3, §4, §5, §6, §7

[4] = test system: greenhouse red spider mite (Tetranychus urticae); assay: Tetranychus test (OP-resistent/dip treatment); format: in vivo; details: 100 ppm, bean plants dipped
Procedure: Tetranychus Test (OP-Resistent/Dip Treatment)
Solvent: 7 parts by weight of dimethylformamide
Emulsifier: 2 parts by weight of alkylaryl polyglycol ether
To produce a suitable preparation of active compound, 1 part by weight of active compound is mixed with the stated amounts of solvent and emulsifier, and the concentrate is diluted with emulsifier-containing water to the desired concentration.
Bean plants (Phaseolus vulgaris) which are heavily infested by all stages of the greenhouse red spider mite (Tetranychus urticae) are dipped into a preparation of active compound of the desired concentration.
After the desired period of time, the effect in % is determined. 100% means that all spider mites have been killed; 0% means that none of the spider mites have been killed.

[5] = test system: apple scab pathogen Venturia inaequalis; assay: Venturia test (apple)/protective; format: in vivo; details: protective, 100 g/ha, evaluation 10 days after inoculation
Procedure: Venturia Test (Apple)/Protective Solvents: 24.5 parts by weight of acetone • 24.5 parts by weight of dimethylacetamide Emulsifier: 1.0 part by weight of alkylaryl polyglycol ether To produce a suitable preparation of active compound, 1 part by weight of active compound is mixed with the stated amounts of solvent and emulsifier, and the concentrate is diluted with water to the desired concentration. To test for protective activity, young plants are sprayed with the preparation of active compound at the stated application rate. After the spray coating has dried on, the plants are inoculated with an aqueous conidia suspension of the apple scab pathogen Venturia inaequalis and then remain in an incubation cabin at about 20° C. and 100% relative atmospheric humidity for 1 day. The plants are then placed in a greenhouse at about 21° C. and a relative atmospheric humidity of about 90%.

Plasmopara viticola = assay: Plasmopara test (grapevine)/protective; format: in vivo; details: protective, 100 g/ha, evaluation 6 days after inoculation
Procedure: Plasmopara Test (Grapevine)/Protective Solvents: 24.5 parts by weight of acetone • 24.5 parts by weight of dimethylacetamide Emulsifier: 1.0 part by weight of alkylaryl polyglycol ether To produce a suitable preparation of active compound, 1 part by weight of active compound is mixed with the stated amounts of solvent and emulsifier, and the concentrate is diluted with water to the desired concentration. To test for protective activity, young plants are sprayed with the preparation of active compound at the stated application rate. After the spray coating has dried on, the plants are inoculated with an aqueous spore suspension of Plasmopara viticola and then remain in an incubation cabin at 20° C. and 100% relative atmospheric humidity for 1 day. The plants are then placed in a greenhouse at about 21° C. and about 90% atmospheric humidity for 4 days. The plants are then moistened and placed in an incubation cabin for 1 day.

[6] = test system: caterpillars of the armyworm (Spodoptera exigua); assay: Spodoptera exigua test; format: in vivo; details: 500 ppm, cabbage leaves dipped
Procedure: as §1, with “Spodoptera exigua” for “Phaedon Larvae”, “caterpillars” for “larvae”, “armyworm (Spodoptera exigua)” for “mustard beetle (Phaedon cochleariae)”, “caterpillars” for “beetle larvae”

Sugar beet = assay: Post-emergence test (greenhouse); format: in vivo; details: 250 g ai/ha, after three weeks
Procedure: as §2, §3, §4, §5, §6, §7

[7] = test system: caterpillars of the diamondback moths (Plutella xylostella); assay: Plutella test; format: in vivo; details: 500 ppm, cabbage leaves dipped
Procedure: as §1, with “Plutella” for “Phaedon Larvae”, “caterpillars” for “larvae”, “diamondback moths (Plutella xylostella)” for “mustard beetle (Phaedon cochleariae)”, “caterpillars” for “beetle larvae”

physchem = format: physicochemical; details: for log P: pH 2.3
Procedure: The stated log P values were determined in accordance with EEC Directive 79/831 Annex V.A8 by HPLC (High Performance Liquid Chromatography) using a reversed-phase column (C 18). Temperature: 43° C. • (a) Mobile phases for the determination in the acidic range: 0.1% aqueous phosphoric acid, acetonitrile; linear gradient from 10% acetonitrile to 90% acetonitrile. • (b) Mobile phases for the determination in the neutral range: 0.01 molar aqueous phosphate buffer solution, acetonitrile; linear gradient from 10% acetonitrile to 90% acetonitrile.
Calibration was carried out using unbranched alkan-2-ones (of 3 to 16 carbon atoms) with known log P values (determination of the log P values by the retention times using linear interpolation between two successive alkanones).

Row | SMILES | Kill rate in % after 7 d ([1]; 500 ppm) | Kill rate in % after 6 d [2] | Kill rate in % after 7 d ([3]; 500 ppm) | degree of damage to the plants in % damage (Echinochloa) | degree of damage to the plants in % damage (Avena fatua) | degree of damage to the plants in % damage (Setaria) | degree of damage to the plants in % damage (Alopecurus) | Kill rate in % after 7 d [4] | log P (physchem) | other results
1 | Cc1ccc(-c2cccc(Cl)c2)cc1C1(Cl)C(=O)NC(C)(C)C1=O (stereo not shown) [Ex. I-1-3] | 100% |  |  |  |  |  |  |  |  | 
2 | Cc1cc(C)c(C2(Cl)C(=O)NC3(CCOCC3)C2=O)cc1-c1ccc(Cl)cc1 (stereo not shown) [Ex. I-1-6] | 100% | 98% | 100% | 100% | 100% | 95% | 70% | 99% |  | degree of damage to the plants in % damage (Amaranthus): 70%; % efficacy [5]: 99%; % efficacy (Plasmopara viticola): 94%
3 | Cc1cc(C)c(C2(Cl)C(=O)NC3(CCCOC3)C2=O)cc1-c1ccc(Cl)cc1 (stereo not shown) [Ex. I-1-7] | 100% | 100% | 100% | 100% | 95% | 100% | 90% | 98% |  | 
4 | CCOC1CCC2(CC1)NC(=O)C(Cl)(c1c(C)cc(-c3ccc(Cl)cc3)cc1Cl)C2=O (stereo not shown) [Ex. I-1-9] | 100% | 95% |  | 100% | 100% | 100% | 95% |  |  | 
5 | Cc1ccc(-c2ccc(Cl)cc2)cc1C1(Cl)C(=O)NC(C)(C(C)C)C1=O (stereo not shown) [Ex. I-1-11] | 100% |  | 100% | 100% | 90% | 100% | 95% | 99% |  | Kill rate in % after 7 d [6]: 90%; degree of damage to the plants in % damage (Sugar beet): 0%; Kill rate in % after 7 d [7]: 100%; % efficacy [5]: 100%; % efficacy (Plasmopara viticola): 100%
6 | COC1CCC2(CC1)NC(=O)C(Cl)(c1cc(-c3cccc(Cl)c3)ccc1Cl)C2=O (stereo not shown) [Ex. I-1-12] | 100% |  | 100% |  |  |  |  | 100% |  | Kill rate in % after 7 d [7]: 100%; % efficacy (Plasmopara viticola): 94%
7 | COC1CCC2(CC1)NC(=O)C(Cl)(c1cc(-c3ccc(Cl)c(Cl)c3)ccc1C)C2=O (stereo not shown) [Ex. I-1-13] | 100% | 100% | 100% | 100% | 90% | 90% | 95% | 95% |  | Kill rate in % after 7 d [6]: 100%; Kill rate in % after 7 d [7]: 100%; % efficacy (Plasmopara viticola): 94%
8 | Cc1ccc(-c2ccc(Cl)cc2)cc1C1(Cl)C(=O)NC2(CCOCC2)C1=O (stereo not shown) [Ex. I-1-14] | 100% | 100% | 100% | 100% | 100% | 100% | 80% | 99% |  | degree of damage to the plants in % damage (Sugar beet): 0%; % efficacy (Plasmopara viticola): 100%
9 | Cc1ccc(-c2ccc(Cl)c(Cl)c2)cc1C1(Cl)C(=O)NC(C)(C)C1=O (stereo not shown) [Ex. I-1-15] | 100% | 95% | 100% |  |  |  |  | 99% |  | Kill rate in % after 7 d [6]: 100%; Kill rate in % after 7 d [7]: 100%
10 | Cc1ccc(-c2ccc(Cl)cc2)cc1C1(Cl)C(=O)OC(C)(C)C1=O (stereo not shown) [Ex. I-2-1] |  |  |  |  |  |  |  | 98% |  | Kill rate in % after 7 d ([1]; 1000 ppm): 100%; chromatographic logP (physchem; pH 2.5): 4.8; Kill rate in % after 7 d ([3]; 1000 ppm): 100%
11 | Cc1ccc(-c2ccc(Cl)cc2)cc1C1(Cl)C(=O)SC2(CCCCC2)C1=O (stereo not shown) [Ex. I-3-1] | 100% |  |  |  |  |  |  |  |  | 
12 | Cc1ccc(-c2ccc(Cl)cc2)cc1C1(Cl)C(=O)OC(C)(C(C)C)C1=O (stereo not shown) [I-2-5] |  |  |  |  |  |  |  |  | log P 5.61 | 
13 | Cc1cc(C)c(C2(Cl)C(=O)OC3(CCCC3)C2=O)cc1-c1ccc(Cl)cc1 (stereo not shown) [I-2-6] |  |  |  |  |  |  |  |  | log P 5.56 | 
14 | CCc1ccc(-c2ccc(Cl)cc2)cc1C1(Cl)C(=O)OC(C)(C)C1=O (stereo not shown) [I-2-7] |  |  |  |  |  |  |  |  | log P 5.05 | 
15 | Cc1ccc(-c2cccc(F)c2)cc1C1(Cl)C(=O)OC(C)(C)C1=O (stereo not shown) [I-2-11] |  |  |  |  |  |  |  |  | log P 4.30 | 
16 | CCOC1CCC2(CC1)OC(=O)C(Cl)(c1c(C)cc(-c3ccc(Cl)cc3)cc1CC)C2=O (stereo not shown) [I-2-13] |  |  |  |  |  |  |  |  | log P 5.59 | 
17 | Cc1cc(-c2ccc(Cl)cc2)cc(C)c1C1(Cl)C(=O)OC(C)(C)C1=O (stereo not shown) [I-2-14] |  |  |  |  |  |  |  |  | log P 5.11 | 
18 | Cc1cc(-c2ccc(Cl)cc2)cc(C)c1C1(Cl)C(=O)OC2(CCCOC2)C1=O (stereo not shown) [I-2-17] |  |  |  |  |  |  |  |  | log P 4.91 | 
